Source: patent publication US7442802B2, “Cyclooxygenase-2 selective inhibitors, compositions and methods of use” (NitroMed, Inc., priority 2002, dated 2008)

What was measured:
[1] = target: T1, COX-1 (Homo sapiens, UniProt P23219); test: Human COX-1 enzyme activity in human whole blood (A23187-stimulated, thromboxane B2 EIA); format: cell-based; conditions: 100 μM, human whole blood, A23187 stimulation; for inhibition at 100 µM: read-out: COX-1 Inhibition (% at 100 μM)
T1 construct: endogenous in cells; host or cells: heparinised human whole blood from donors, stimulated with the calcium ionophore A23187
Description: (§1) The blood was transported to the laboratory on ice packs and used within 1.5 hours of collection. Upon receipt in the laboratory, the blood was allowed to come to room temperature for 15 minutes prior to distribution in 1 mL aliquots per well of 24 well tissue culture plates. […] Test compounds were dissolved in DMSO, at 1000 fold the final desired concentration, and further diluted, as indicated, in DMSO. One μL of each dilution of the test compound was added per well, in duplicate wells; wells not receiving test compound (e.g., basal, background or control wells) received 1 μL DMSO. […] Louis, Mo., Catalogue No. […] Louis, Mo., Catalogue No. […] (Again, basal, background or control wells not stimulated with A23187 received 1 μL of DMSO.) At 5 hours after the addition of the test compound, all incubations were terminated by placement on ice and the addition of 2 mM EGTA (100 μL of 20 mM EGTA, tetrasodium, in PBS (phosphate buffered saline) without Ca^++ and Mg^++, pH 7.2)). […] One hundred μL of plasma was removed from each blood sample and added to 1 mL of methanol in new 15 mL polypropylene centrifuge tubes, vortexed, and stored overnight at -20° C. […] The samples were assayed for thromboxane B2 using EIA kits supplied by Cayman Chemical Co. […] The % inhibition for COX-1 and COX-2 enzyme activity in human whole blood by the test compounds, at the indicated concentrations, are given in Table 1.

[2] = target: T2, COX-2 (Homo sapiens, UniProt P35354); test: Human COX-2 enzyme activity in human whole blood (LPS-induced, thromboxane B2 EIA); format: cell-based; conditions: human whole blood, LPS induction; for inhibition at 1 µM: read-out: COX-2 Inhibition (% at 1 μM); for inhibition at 10 µM: read-out: COX-2 Inhibition (% at 10 μM)
T2 construct: To induce COX-2, lipopolysaccharide (LPS) from E. coli; endogenous in cells; host or cells: heparinised human whole blood from donors, with COX-2 induced by E. coli LPS
T2 sequence (P35354 18-604): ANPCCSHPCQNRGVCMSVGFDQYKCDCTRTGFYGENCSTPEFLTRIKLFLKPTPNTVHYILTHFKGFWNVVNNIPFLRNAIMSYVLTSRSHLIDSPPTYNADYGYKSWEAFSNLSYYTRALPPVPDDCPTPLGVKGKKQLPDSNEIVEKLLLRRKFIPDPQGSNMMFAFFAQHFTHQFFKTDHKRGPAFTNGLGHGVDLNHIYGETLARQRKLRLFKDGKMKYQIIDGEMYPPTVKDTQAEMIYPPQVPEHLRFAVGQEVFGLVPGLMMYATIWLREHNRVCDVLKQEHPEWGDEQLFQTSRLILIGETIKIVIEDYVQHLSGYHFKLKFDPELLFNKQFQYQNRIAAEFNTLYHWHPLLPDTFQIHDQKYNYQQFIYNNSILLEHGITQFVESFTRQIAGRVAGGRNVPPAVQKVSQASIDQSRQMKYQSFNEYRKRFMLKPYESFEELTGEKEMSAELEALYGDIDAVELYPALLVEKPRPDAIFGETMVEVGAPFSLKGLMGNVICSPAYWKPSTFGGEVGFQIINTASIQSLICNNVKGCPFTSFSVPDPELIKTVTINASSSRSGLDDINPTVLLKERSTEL
Description: as §1

T1 sequence (P23219 24-599): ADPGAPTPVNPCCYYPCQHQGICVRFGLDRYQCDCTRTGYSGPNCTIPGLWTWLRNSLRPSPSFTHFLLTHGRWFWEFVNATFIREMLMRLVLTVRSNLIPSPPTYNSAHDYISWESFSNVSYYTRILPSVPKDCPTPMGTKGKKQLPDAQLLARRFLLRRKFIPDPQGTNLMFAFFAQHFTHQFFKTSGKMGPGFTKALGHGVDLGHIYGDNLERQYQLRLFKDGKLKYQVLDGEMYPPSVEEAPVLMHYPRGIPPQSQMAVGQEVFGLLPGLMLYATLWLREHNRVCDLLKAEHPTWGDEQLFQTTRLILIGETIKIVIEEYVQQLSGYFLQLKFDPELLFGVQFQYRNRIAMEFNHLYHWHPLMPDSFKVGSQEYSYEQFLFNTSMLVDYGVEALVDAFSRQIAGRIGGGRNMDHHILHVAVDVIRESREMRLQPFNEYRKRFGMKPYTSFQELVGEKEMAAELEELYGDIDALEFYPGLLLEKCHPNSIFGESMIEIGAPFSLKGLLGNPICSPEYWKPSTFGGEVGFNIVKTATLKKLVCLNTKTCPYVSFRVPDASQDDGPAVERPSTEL

| SMILES | melting point | inhibition at 100 µM [1] | inhibition at 1 µM [2] | inhibition at 10 µM [2] | COX-1 Inhibition (% at 100 μM) [1] | COX-2 Inhibition (% at 1 μM) [2] | COX-2 Inhibition (% at 10 μM) [2] |
| --- | --- | --- | --- | --- | --- | --- | --- |
| NS(=O)(=O)c1ccc(-c2c(-c3ccccc3)noc2COCC(F)(F)C(F)(F)CO[N+](=O)[O-])cc1 [Example 33b, 4-(3-Phenyl-5-((2,2,3,3-tetrafluoro-4-(nitrooxy)butoxy)methyl)isoxazol-4-yl)benzenesulfonamide] | 46 °C | 85% | 90% | 100% |  |  |  |
| CS(=O)(=O)c1ccc(-c2[nH]nc(C(=O)CCCO[N+](=O)[O-])c2-c2ccc(C#N)cc2)cc1 [Example 42e, 4-(5-(4-(Methylsulfonyl)phenyl)-3-(4-(nitrooxy)butanoyl)pyrazolyl)benzenecarbonitrile] | 148 to 149 °C | 35% | 10% | 55% |  |  |  |
| CS(=O)(=O)c1ccc(-n2nc(/C=C\CCO)cc2-c2cccnc2)cc1 [Example 25e, 1-(3-((1Z)-4-Hydroxybut-1-enyl)-5-(3-pyridnyl)pyrazolyl)-4-(methylsulfonyl)benzene] |  |  |  |  | 10% | 15% | 0% |
| CS(=O)(=O)c1ccc(-c2cc(C(=O)CCCO)nn2-c2ccc(C(F)(F)F)cc2)cc1 [Example 23d, 4-Hydroxy-1-(5-(4-(methylsulfonyl)phenyl)-1-(4-(trifluoromethyl)-phenyl)pyrazol-3-yl)butan-1-one] |  | -20% | 0% | 10% |  |  |  |
| COc1ccc(-n2nc(C(=O)CCCO)cc2-c2ccc(S(C)(=O)=O)cc2)cc1 [Example 24d, 4-Hydroxy-1-(1-(4-methoxyphenyl)-5-(4-(methylsulfonyl)phenyl)-pyrazol-3-yl)butan-1-one] |  | 85% | 50% | 85% |  |  |  |
| NS(=O)(=O)c1ccc(-c2c(-c3ccccc3)noc2COCCO)cc1 [Example 27a] |  |  |  |  | 45% | 40% | 90% |
| CS(=O)(=O)c1ccc(-c2cc(/C=C\CCO)nn2C2CCCCC2)cc1 [Example 4e, 1-(3-((1Z)-4-(Hydroxy)but-1-enyl)-1-cyclohexylpyrazol-5-yl-4-methylsulfonyl)benzene] |  |  |  |  | 45% | 30% | 70% |
| Cc1ccc(-c2[nH]nc(COCCCO[N+](=O)[O-])c2-c2ccc(S(N)(=O)=O)cc2)cc1 [Example 20g, 4-(5-(4-Methylphenyl)-3-((3-(nitrooxy)propoxy)methyl)pyrazolyl)benzenesulfonamide] | 62 °C |  |  |  |  |  |  |
| CC(CCOCc1cc(-c2ccc(S(C)(=O)=O)cc2)n(-c2ccccc2)n1)O[N+](=O)[O-] (stereo not drawn) [Example 19c, 4-(Methylsulfonyl)-1-(3-((3-(nitrooxy)butoxy)methyl)-1-phenylpyrazol-5-yl)benzene] |  | 35% | 20% | 30% |  |  |  |
| CS(=O)(=O)c1ccc(-c2cc(C(=O)CCCCCO[N+](=O)[O-])nn2C2CCCCC2)cc1 [Example 22d] |  |  |  |  | 75% | 30% | 30% |

Second part, led by results:

| melting point | inhibition at 100 µM [1] | inhibition at 1 µM [2] | inhibition at 10 µM [2] | SMILES | COX-1 Inhibition (% at 100 μM) [1] | COX-2 Inhibition (% at 1 μM) [2] | COX-2 Inhibition (% at 10 μM) [2] |
| --- | --- | --- | --- | --- | --- | --- | --- |
| 45 to 47 °C | 50% | 10% | 20% | NS(=O)(=O)c1ccc(-c2cc(C(=O)CCCO[N+](=O)[O-])nn2C2CCCCC2)cc1 [Example 43h, 4-(1-Cyclohexyl-3-(4-(nitrooxy)butanoyl)pyrazol-5-yl)benzenesulfonamide] |  |  |  |
| 117 °C |  |  |  | CS(=O)(=O)c1ccc(-c2cc(CCO[N+](=O)[O-])nn2C2CCCCC2)cc1 [Example 30d, 4-(1-Cyclohexyl-3-(2-(nitrooxy)ethyl)pyrazol-5-yl)-1-(methylsulfonyl)benzene] |  |  |  |
| 107 to 109 °C | 55% | 70% | 95% | Cc1ccc(-n2nc(C(=O)CCCO[N+](=O)[O-])cc2-c2ccc(S(C)(=O)=O)cc2)cc1 [Example 12e, 1-(1-(4-Methylphenyl)-5-(4-(methylsulfonyl)phenyl)pyrazol-3-yl)-4-(nitrooxy)butan-1-one] |  |  |  |
| 152 to 154 °C | 45% | 35% | 100% | CS(=O)(=O)c1ccc(-c2cc(C(=O)CCCO[N+](=O)[O-])nn2-c2ccc(C(F)(F)F)cc2)cc1 [Example 23e, 1-(5-(4-(Methylsulfonyl)phenyl)-1-(4-(trifluoromethyl)phenyl)pyrazol-3-yl)-4-(nitrooxy)butan-1-one] |  |  |  |
| 150 to 152 °C | 90% | 70% | 95% | CS(=O)(=O)c1ccc(-c2cc(C(=O)CCCO[N+](=O)[O-])nn2-c2ccc(Br)cc2)cc1 [Example 14e, 1-(1-(4-Bromophenyl)-5-(4-(methylsulfonyl)phenyl)pyrazol-3-yl)-4-(nitrooxy)butan-1-one] |  |  |  |
| 131 to 132 °C | 60% | 30% | 100% | CS(=O)(=O)c1ccc(-c2cc(C(=O)CCCO[N+](=O)[O-])nn2-c2ccc(Cl)cc2)cc1 [Example 44e, 1-(1-(4-Chlorophenyl)-5-(4-(methylsulfonyl)phenyl)pyrazol-3-yl)-4-(nitrooxy)butan-1-one] |  |  |  |
| 77 °C |  |  |  | CS(=O)(=O)c1ccc(-c2cc(CCCO[N+](=O)[O-])nn2C2CCCCC2)cc1 [Example 31e, 4-(1-Cyclohexyl-3-(3-(nitrooxy)propyl)pyrazol-5-yl)-1-(methylsulfonyl)benzene] |  |  |  |
| 119 to 120 °C | 35% | 60% | 90% | CS(=O)(=O)c1ccc(-c2cc(CO[N+](=O)[O-])nn2C2CCCCCC2)cc1 [Example 2d, 1-(1-Cycloheptyl-3-((nitrooxy)methyl)pyrazol-5-yl)-4-(methylsulfonyl)benzene] |  |  |  |
| 168 to 170 °C |  |  |  | CS(=O)(=O)c1ccc(-c2cc(C(=O)NCCO[N+](=O)[O-])nn2C2CCCCC2)cc1 [Example 45c, (1-Cyclohexyl-5-(4-(methylsulfonyl)phenyl)pyrazol-3-yl)-N-(2-(nitrooxy)ethyl)carboxamide] |  |  |  |
|  | 45% | 60% | 100% | CS(=O)(=O)c1ccc(-c2cc(COCCCO[N+](=O)[O-])nn2-c2ccc(C(F)(F)F)cc2)cc1 [Example 9e, 4-(Methylsulfonyl)-1-(3-((3-(nitrooxy)propoxy)methyl)-1-(4-(trifluoromethyl)phenyl)pyrazol-5-yl)benzene] |  |  |  |
|  | 0% | 60% | 90% | CS(=O)(=O)c1ccc(-c2cc(C(=O)CCCO)nn2C2CCCCC2)cc1 [Example 3e, 1-(1-Cyclohexyl-5-(4-(methylsulfonyl)phenyl)pyrazol-3-yl)-4-hydroxybutan-1-one] |  |  |  |
|  | 10% | 15% | 25% | CS(=O)(=O)c1ccc(-c2cc(CNCCO)nn2C2CCCCC2)cc1 [Example 38c, 1-(1-Cyclohexyl-3-(((2-hydroxyethyl)amino)methyl)pyrazol-5-yl)-4-(methylsulfonyl)benzene] |  |  |  |
